Measurements published in US10178865B2, “Insect repellent” (priority 2013, dated 2019).

System: Red imported fire ant (Solenopsis invicta)
Assay: Fire ant repellency, honey plates near mounds (Example 6)
Format: in vivo
Settings: separate trial; about 100 mg per plate; within 4 feet of mounds
Source text: Formulation A was poured into a plastic spray bottle and was sprayed onto 20 eight inch paper plates, one squeeze of the pump trigger per plate. […] Ten treated plates were placed randomly on the ground on a farm in Sparks, Ga., USA and ten control (untreated) plates were placed on the ground about 3 feet from the treated plates. Ten treated plates were placed about 4 feet from active Red imported fire ant mounds and ten control plates were placed near the same mounds no closer than 3 feet from the treated plates. Each plate received approximately 15 mL of an aqueous 25% honey solution.
Fifty percent of the control plates had active fire ant feeding within 15 minutes and 100% of the control plates had active fire ant feeding within 30 minutes.

Structure (SMILES): COC(=O)c1ccccc1N [methyl anthranilate]
- deterrence of fire ant feeding: did not deter fire ants from feeding
